Experimental findings from US20020073447A1, “Acquired resistance genes and uses thereof” (priority 1996, published 2002) are described below.

In one data set the test system is BGL2-GUS reporter gene. Briefly: Quantitative GUS assay of BGL2-GUS reporter plants grown on SA or INA. In kind it is in vivo, Arabidopsis thaliana. The settings on record: 0.5 mM SA, 0.1 mM INA. The procedure:
The M2 seeds were germinated on MS medium with the addition of 0.8% agar, 0.5 mg/mL Mes (2-(N-morpholino)ethane-sulfonic acid), pH 5.7, 2% sucrose, 50 μg/mL kanamycin, and 100 μg/mL ampicillin. […] After incubation for fifteen days, each seedling to be assayed was numbered, and a single leaf was then removed from each seedling and put into the corresponding sample well of a ninety-six-well microtiter plate that contained 100 μL of […] (GUS) substrate solution (50 mM Na2HPO4, pH 7.0, 10 mM Na2EDTA, 0.1% Triton X-100, 0.1% sarkosyl, 0.7 μL/mL β-mercaptoethanol, and 0.7 mg/mL 4-methylumbelliferyl β-D-glucuronide). After all the samples were collected, the microtiter plate was placed under vacuum for two minutes to infiltrate the samples and then incubated at 37° C. overnight. Samples were examined for the fluorescent product of GUS activity (4-methylumbellifone) using a long-wavelength UV light. […] This procedure was repeated in the progeny of these putative mutants to ensure that the mutant phenotype was heritable and to identify the homozygous mutants.
To measure accurately the level of GUS activity, a quantitative GUS assay was performed on npr1-1 plants and the wild-type BGL2-GUS plants grown in the presence of either SA or INA, or in the absence of both. In the absence of an inducer, the background level of GUS activity was five-fold lower in the npr1-1 mutant than in the wild-type. […] Moreover, the induction by 0.1 mM INA was forty-eight-fold for the wild-type versus five-fold for npr1-1. Thus, while GUS activity in the SA- or INA-treated npr1-1 plants was somewhat induced, the activity was at most only slightly higher than the background level of the untreated wild-type.

Data set [1] deals with Pseudomonas syringae pv maculicola ES4326. The data set is described as follows: SA-/INA-induced protection against P.s. maculicola ES4326 infection (disease symptoms). In kind it is in vivo. The following applies: 1 mM SA or 0.65 mM INA two days before P.s. maculicola ES4326; for plants with chlorotic lesions: npr1-1 plants; for plants showing slight yellowing: wild-type plants. The procedure: To examine whether the lack of SA- or INA-induced PR gene expression would affect SAR protection against a virulent pathogen infection, fifteen-day-old wild-type and npr1-1 plants were treated with either 1 mM SA or 0.65 mM INA, and two days later were exposed to a P.s. maculicola ES4326 bacterial suspension. […] Chlorotic lesions developed in about ninety percent of the untreated wild-type control plants not pretreated with SA or INA. However, such SA- or INA-induced protection was not observed in npr1-1 mutant plants. Chlorotic lesions were clearly seen in over ninety-percent of untreated and at least eighty-percent of SA- or INA-treated plants. The symptoms on npr1-1 were also more severe than on the wild-type plants.

Data set [2] shares this test system. Briefly: Growth of P.s. maculicola ES4326 in SA-/INA-pretreated plants. In kind it is in vivo. The settings on record: for growth of P.s. maculicola ES4326 lower than the untreated control / growth of P.s. maculicola ES4326: wild-type plants treated two days before infection; for growth of P.s. maculicola ES4326: 0 to 3.0 days after infiltration.
For a further data set, the system named is PR1 gene. The data set is described as follows: RNA blot analysis of PR1 induction. Format: in vivo, Arabidopsis thaliana. The settings on record: leaves in 0.5 mM INA for twenty-four hours, or SA. The method, then: Transformants of npr1-2 were grown (22° C. in fourteen hours of light) and selected on MS medium agar (Murashige and Skoog, Physiol Plant. 15:473-497, 1962) containing 2% sucrose, 50 μg/mL kanamycin, and 100 μg/mL ampicillin. Kanamycin-resistant transformants which developed true leaves and healthy roots were transplanted to soil. After two weeks of growth in soil at 22° C. in fourteen hours of light per day, leaves were collected from three transformants of each cosmid clone and soaked in 0.5 mM INA solution for twenty-four hours at 22° C. in fourteen hours of light per day. Leaf tissues were then collected and frozen in liquid nitrogen. Total RNA was extracted from these leaf tissues, and an RNA blot was prepared as described by Cao et al. (Plant Cell 6:1583-1592, 1994). The blot was probed with a PR1-specific probe (a PCR product obtained by amplifying genomic Arabidopsis DNA with PR1-specific primers (sense primer 5′ […]3′ (SEQ ID NO: 19); anti-sense primer 5′ […]3′ (SEQ ID NO: 20)).
These variations were likely to be the result of “position-effects,” the effect of the insertion site in the chromosome on the expression of the transgene. Cosmid clones 21A4-4-3-1, 21A4-6-1-1, 21A4-P5-1, and 21A4-2-1 restored the ability of the npr1-2 mutant to respond to INA induction and, therefore, complemented the npr1-2 mutation.
Transformants carrying each cosmid were also tested for SA induction of PR1 expression by RNA blot analysis Examples of SA induction are shown in FIG. 2A.

The subject of a further data set is Arabidopsis thaliana. The data set is described as follows: Plant tolerance to SA or INA treatment (growth, symptoms). In kind it is in vivo. The following applies: wild-type and npr1-1 plants; 1 mM SA, 0.65 mM INA.
The target of the next data set is T1, NPR1-GFP (Arabidopsis thaliana, UniProt P93002).
T1 construct: expressed in transfected cells; host or cells: Transgenic Arabidopsis npr1-1 and npr1-2 mutant plants (seedlings; leaf mesophyll and guard cells), CaMV 35S promoter
T1 sequence (P93002 1-593): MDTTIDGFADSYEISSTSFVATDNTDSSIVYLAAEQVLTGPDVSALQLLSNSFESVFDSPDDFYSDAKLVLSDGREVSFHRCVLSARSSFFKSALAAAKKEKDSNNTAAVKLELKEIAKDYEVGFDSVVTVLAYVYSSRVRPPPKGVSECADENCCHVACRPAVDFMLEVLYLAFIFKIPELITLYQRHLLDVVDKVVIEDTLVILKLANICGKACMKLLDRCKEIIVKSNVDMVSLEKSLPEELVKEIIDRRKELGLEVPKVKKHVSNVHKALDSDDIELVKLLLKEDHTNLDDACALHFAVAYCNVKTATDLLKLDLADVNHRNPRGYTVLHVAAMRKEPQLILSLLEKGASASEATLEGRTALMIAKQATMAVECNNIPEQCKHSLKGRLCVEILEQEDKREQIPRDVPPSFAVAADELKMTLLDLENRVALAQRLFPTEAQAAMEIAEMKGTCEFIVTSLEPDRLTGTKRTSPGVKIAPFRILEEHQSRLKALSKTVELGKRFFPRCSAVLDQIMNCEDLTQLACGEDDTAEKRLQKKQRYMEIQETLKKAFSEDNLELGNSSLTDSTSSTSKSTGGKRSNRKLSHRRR
Briefly: Subcellular localization of NPR1-GFP by confocal microscopy. In kind it is in vivo. The settings on record: 35S-NPR1-GFP eleven-day-old seedlings grown on MS with SA or INA. The procedure:
To elucidate the induction mechanism and the molecular function of the protein, the subcellular localization of NPR1 was determined by using standard reporter gene fusion construct analysis. The green fluorescent protein (GFP) gene was fused to the carboxyl end of the NPR1 cDNA driven by the constitutive CaMV 35S promoter, and the 35S-NPR1-GFP construct was used to transform npr1 mutants, npr1-1 and npr1-2, according to standard methods.
To examine the subcellular localization of the NPR1 protein, the 35S-NPR1-GFP and 35S-mGFP transgenic lines were grown in MS medium in the presence or absence of the SAR-inducing chemicals SA or INA. Eleven-day-old seedlings were subsequently examined using confocal microscopy to detect localization of NPR1-GFP and mGFP. […] In the 35S-mGFP transformants, green fluorescence was detected in the cytoplasm as well as in the nuclei, and SA and INA treatments had no effect on the localization of the protein. […] In the guard cells, the NPR1 protein was localized in the nuclei even without an SAR induction, an intriguing observation because constitutive activation of defense mechanisms in these cells may be necessary to fend off microbial pathogens from gaining entry into the plant through stomata. […] Consistent with this, the following two potential nuclear localization sequences (NLS's) were found in NPR1: […]

As for `O=C(O)c1cc(Cl)nc(Cl)c1` [INA, 2,6-dichloroisonicotinic acid], the “increase in GUS activity compared to the uninduced plants” value (“increase in GUS activity” for short) with BGL2-GUS reporter gene (npr1-1 plants) is listed as “five”. The “increase in GUS activity” value in the data set on BGL2-GUS reporter gene (wild-type BGL2-GUS plants) is reported as “forty-eight”. In data set [1], the “plants with chlorotic lesions” value was “at least eighty” and the “plants showing slight yellowing” value is listed as “less than ten”. In addition, the “decrease in Psm ES4326 growth” value in data set [2] (npr1-2 mutant, 0.65 mM INA seventy-two hours prior to infection) is about 10 fold. In data set [2], the “growth of P.s. maculicola ES4326 lower than the untreated control” value came to 1000 times and the “growth of P.s. maculicola ES4326” value is “about ten”. Moreover, in data set [2] (wild-type plants, 0.65 mM INA seventy-two hours prior to infection (OD600=0.001)), the “inhibition of Psm ES4326 growth” value is “Complete inhibition”. Further, the “induction of PR1 gene expression” value in the data set on PR1 gene (npr1-2 mutant) is “no induction”. Further, in the data set with PR1 gene (wild-type parental line), the “induction of PR1 gene expression” value is on record as “induction”. Also, the “effect of treatment alone on plants (no infection)” value in the data set on Arabidopsis thaliana is “minimal effect”. Besides, the “localization of NPR1-GFP upon induction” value at NPR1-GFP was “exclusively in the nuclei of both the mesophyll cells and the guard cells”.
With `O=C(O)c1ccccc1O` [SA, salicylic acid], the “increase in GUS activity” value in the data set on BGL2-GUS reporter gene (npr1-1 plants) is on record as “seven”. In addition, the “increase in GUS activity” value in the data set with BGL2-GUS reporter gene (wild-type BGL2-GUS plants) is recorded as “fifty-two”. In data set [1], the “plants with chlorotic lesions” value is on record as “at least eighty” and the “plants showing slight yellowing” value is given as “less than ten”. Besides, in data set [2], the “growth of P.s. maculicola ES4326 lower than the untreated control” value turned out to be 1000 times and the “growth of P.s. maculicola ES4326” value is recorded as “about ten”. In the data set on PR1 gene (npr1-2 mutant), the “induction of PR1 gene expression” value is reported as “only a minor induction”. Moreover, in the data set on PR1 gene (wild-type parental line), the “induction of PR1 gene expression” value is recorded as “high level of PR1 gene induction”. Besides, in the data set on Arabidopsis thaliana, the “effect of treatment alone on plants (no infection)” value is reported as “minimal effect”. In addition, the “localization of NPR1-GFP upon induction” value at NPR1-GFP was “exclusively in the nuclei of both the mesophyll cells and the guard cells”.
